Test results published in patent publication US20180186742A1, “PICOLINAMIDES AS FUNGICIDES” (Dow AgroSciences LLC, priority 2017, published 2018).
Read-outs that look alike come from different tables or passages of the source.

Assays:
Format in all cases: in vivo
Uncinula necator = assay: Grape powdery mildew (UNCINE), disease control on grape seedlings; details: Erysiphe necator, 24 h, 1DP (1 Day Protectant) test at 100 ppm
Experimental: Technical grades of materials were dissolved in acetone, which were then mixed with nine volumes of water containing 110 ppm Triton X-100. The fungicide solutions were applied onto wheat seedlings using an automated booth sprayer to run-off. All sprayed plants were allowed to air dry prior to further handling. All fungicides were evaluated using the aforementioned method for their activity vs. all target diseases, unless stated otherwise. Wheat leaf blotch and brown rust activity were also evaluated using track spray applications, in which case the fungicides were formulated as EC formulations, containing 0.1% Trycol 5941 in the spray solutions. Grape seedlings (variety Carignane) were grown in soil-less Metro mix, with one plant per pot, and used in the test when approximately 1 month old. Plants were inoculated 24 hr after fungicide treatment by shaking spores from infected leaves over test plants. Plants were maintained in a greenhouse set at 20° C. until disease was fully developed. Fungicide formulation, application and disease assessment on sprayed leaves followed the procedures as described in the Example A.

Parastagonospora nodorum = assay: Wheat glume blotch (LEPTNO), disease control on wheat seedlings; details: 1DP test at 100 ppm, read-out: LEPTNO disease control rating
Experimental: Technical grades of materials were dissolved in acetone, which were then mixed with nine volumes of water containing 110 ppm Triton X-100. The fungicide solutions were applied onto wheat seedlings using an automated booth sprayer to run-off. All sprayed plants were allowed to air dry prior to further handling. All fungicides were evaluated using the aforementioned method for their activity vs. all target diseases, unless stated otherwise. Wheat leaf blotch and brown rust activity were also evaluated using track spray applications, in which case the fungicides were formulated as EC formulations, containing 0.1% Trycol 5941 in the spray solutions. Wheat plants (variety Yuma) were grown from seed in a greenhouse in 50% mineral soil/50% soil-less Metro mix until the first leaf was fully emerged, with 7-10 seedlings per pot. These plants were inoculated with an aqueous spore suspension of Parastagonospora nodorum 24 hr after fungicide treatments. After inoculation the plants were kept in 100% relative humidity (one day in a dark dew chamber followed by two days in a lighted dew chamber at 20° C.) to permit spores to germinate and infect the leaf. The plants were then transferred to a greenhouse set at 20° C. for disease to develop. Fungicide formulation, application and disease assessment followed the procedures as described in the Example A.

[1] = system: Glomerella lagenarium; Anamorph: Colletotrichum lagenarium; assay: Cucumber anthracnose (COLLLA), disease control on cucumber seedlings; details: Colletotrichum orbiculare, 1DP test at 100 ppm, read-out: COLLLA disease control rating
Experimental: Technical grades of materials were dissolved in acetone, which were then mixed with nine volumes of water containing 110 ppm Triton X-100. The fungicide solutions were applied onto wheat seedlings using an automated booth sprayer to run-off. All sprayed plants were allowed to air dry prior to further handling. All fungicides were evaluated using the aforementioned method for their activity vs. all target diseases, unless stated otherwise. Wheat leaf blotch and brown rust activity were also evaluated using track spray applications, in which case the fungicides were formulated as EC formulations, containing 0.1% Trycol 5941 in the spray solutions. Cucumber seedlings (variety Bush Pickle) were propagated in soil-less Metro mix, with each pot having one plant, and used in the test when 12 to 14 days old. Test plants were inoculated with an aqueous spore suspension of Colletotrichum lagenarium 24 hr after fungicide treatments. After inoculation the plants were kept in a dew room at 22° C. with 100% relative humidity for 48 hr to permit spores to germinate and infect the leaf. The plants were then transferred to a growth room set at 22° C. for disease to develop. Fungicide formulation, application and disease assessment on the sprayed leaves followed the procedures as described in the Example A.

Phakopsora pachyrhizi = assay: Asian soybean rust (PHAKPA), disease control on soybean seedlings; details: High volume application at 25 ppm
Outline: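 Two-week-old Williams 82 soybean seedlings were sprayed to run-off with compound in acetone/water (1:9) containing 0.011% Tween 20. Inoculation was 3 days before (curative) or 1 day after (protectant) treatment, followed by 24 h dark dew at 22 °C, 100% RH, then 23 °C; disease severity scored on sprayed leaves.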

[2] = system: Pseudoperonospora cubensis; assay: Cucumber downy mildew (PSPECU), disease control on cucumber seedlings; details: 24 h, 1DP (1 Day Protectant) test at 100 ppm
Experimental: Technical grades of materials were dissolved in acetone, which were then mixed with nine volumes of water containing 110 ppm Triton X-100. The fungicide solutions were applied onto wheat seedlings using an automated booth sprayer to run-off. All sprayed plants were allowed to air dry prior to further handling. All fungicides were evaluated using the aforementioned method for their activity vs. all target diseases, unless stated otherwise. Wheat leaf blotch and brown rust activity were also evaluated using track spray applications, in which case the fungicides were formulated as EC formulations, containing 0.1% Trycol 5941 in the spray solutions. Cucumber seedlings (variety Bush Pickle) were grown in soil-less Metro mix, with one plant per pot, and used in the test when 12 to 14 days old. Plants were inoculated with a spore suspension 24 hr following fungicide treatments. Test plants were inoculated with an aqueous spore suspension of Pseudoperonospora cubensis 24 hr after fungicide treatments. After inoculation the plants were kept in a dew room at 22° C. with 100% relative humidity for 24 hr to permit spores to germinate and infect the leaf. The plants were then transferred to a greenhouse set at 20° C. until disease was fully expressed. Fungicide formulation, application and disease assessment on the sprayed leaves followed the procedures as described in the Example A.

[3] = 24 h, 1 Day Protectant, read-out: PHAKPA 1DP disease control rating
[4] = 72 h, 3 Day Curative, read-out: PHAKPA 3DC disease control rating

With `COc1ccnc(C(=O)N[C@@H](C)C(=O)O[C@@H](C)[C@H](c2ccc(F)cc2C)C(C)C)c1OC(=O)C(C)(C)C` [Compound 374] the pest or weed control at 100 ppm (Uncinula necator) was over 80%, the pest or weed control at 100 ppm (Parastagonospora nodorum) was over 80% and the pest or weed control at 100 ppm [1] was under 80%. It also gave a pest or weed control at 25 ppm (Phakopsora pachyrhizi; [3]) of over 80%, a pest or weed control at 25 ppm (Phakopsora pachyrhizi; [4]) of under 80% and a pest or weed control at 100 ppm [2] of under 80%.
For `COc1ccnc(C(=O)N[C@@H](C)C(=O)O[C@@H](C)[C@H](c2ccccc2C)C(C)C)c1OC(=O)C(C)C` [Compound 375], the pest or weed control at 100 ppm (Uncinula necator) was over 80%, the pest or weed control at 100 ppm (Parastagonospora nodorum) was over 80% and the pest or weed control at 100 ppm [1] was over 80%. The pest or weed control at 25 ppm (Phakopsora pachyrhizi; [3]) was over 80%, the pest or weed control at 25 ppm (Phakopsora pachyrhizi; [4]) was over 80% and the pest or weed control at 100 ppm [2] was under 80%.
`COc1ccnc(C(=O)N[C@@H](C)C(=O)O[C@@H](C)[C@H](c2cccc(C)c2C)C(C)C)c1OC(C)=O` [Compound 363] was tested, and the pest or weed control at 100 ppm (Uncinula necator) was over 80%, the pest or weed control at 100 ppm (Parastagonospora nodorum) was under 80% and the pest or weed control at 100 ppm [1] was under 80%. For the same molecule, the pest or weed control at 25 ppm (Phakopsora pachyrhizi; [3]) was over 80%, the pest or weed control at 25 ppm (Phakopsora pachyrhizi; [4]) was over 80% and the pest or weed control at 100 ppm [2] was under 0%.
`COc1ccnc(C(=O)N[C@@H](C)C(=O)O[C@@H](C)[C@H](c2ccc(F)cc2C)C(C)C)c1OC(=O)C1CCCC1` [Compound 354] gave a pest or weed control at 100 ppm (Uncinula necator) of over 80%, a pest or weed control at 100 ppm (Parastagonospora nodorum) of over 80% and a pest or weed control at 100 ppm [1] of over 80%. For the same molecule, the pest or weed control at 25 ppm (Phakopsora pachyrhizi; [3]) was over 80%, the pest or weed control at 25 ppm (Phakopsora pachyrhizi; [4]) was over 80% and the pest or weed control at 100 ppm [2] was over 80%.
Molecule `CCC(=O)Oc1c(OC)ccnc1C(=O)N[C@@H](C)C(=O)O[C@@H](C)[C@H](c1ccc(F)cc1C)C(C)C` [Compound 357] has a pest or weed control at 100 ppm (Uncinula necator) of over 80%, a pest or weed control at 100 ppm (Parastagonospora nodorum) of over 80% and a pest or weed control at 100 ppm [1] of over 80%. It also gave a pest or weed control at 25 ppm (Phakopsora pachyrhizi; [3]) of over 80%, a pest or weed control at 25 ppm (Phakopsora pachyrhizi; [4]) of over 80% and a pest or weed control at 100 ppm [2] of under 80%.
In the case of `COc1ccnc(C(=O)N[C@@H](C)C(=O)O[C@@H](C)[C@H](c2cccc(F)c2C)C(C)C)c1OC(C)=O` [Compound 359], the pest or weed control at 100 ppm (Uncinula necator) is reported as over 80%, the pest or weed control at 100 ppm (Parastagonospora nodorum) is reported as over 80% and the pest or weed control at 100 ppm [1] is reported as over 80%. It also gave a pest or weed control at 25 ppm (Phakopsora pachyrhizi; [3]) of over 80%, a pest or weed control at 25 ppm (Phakopsora pachyrhizi; [4]) of over 80% and a pest or weed control at 100 ppm [2] of under 80%.
Work on `COc1cc[n+]([O-])c(C(=O)N[C@@H](C)C(=O)O[C@@H](C)[C@H](c2ccc(F)cc2C)C(C)C)c1O` [Compound 218] yielded a pest or weed control at 100 ppm (Uncinula necator) of over 80%, a pest or weed control at 100 ppm (Parastagonospora nodorum) of over 80% and a pest or weed control at 100 ppm [1] of under 80%. For the same molecule, the pest or weed control at 25 ppm (Phakopsora pachyrhizi; [3]) was under 80%, the pest or weed control at 25 ppm (Phakopsora pachyrhizi; [4]) was under 80% and the pest or weed control at 100 ppm [2] was under 0%.
With `CCOC(=O)Oc1c(OC)ccnc1C(=O)N[C@@H](C)C(=O)O[C@@H](C)[C@H](c1ccc(F)cc1C)C(C)C` [Compound 372] the pest or weed control at 100 ppm (Uncinula necator) was over 80%, the pest or weed control at 100 ppm (Parastagonospora nodorum) was over 80% and the pest or weed control at 100 ppm [1] was over 80%. It also gave a pest or weed control at 25 ppm (Phakopsora pachyrhizi; [3]) of over 80%, a pest or weed control at 25 ppm (Phakopsora pachyrhizi; [4]) of over 80% and a pest or weed control at 100 ppm [2] of over 80%.
Work on `COc1ccnc(C(=O)N[C@@H](C)C(=O)O[C@@H](C)[C@H](c2ccc(F)cc2C)C(C)C)c1OC(C)=O` [Compound 186] yielded a pest or weed control at 100 ppm (Uncinula necator) of over 80%, a pest or weed control at 100 ppm (Parastagonospora nodorum) of over 80% and a pest or weed control at 100 ppm [1] of under 0%. The pest or weed control at 25 ppm (Phakopsora pachyrhizi; [3]) was over 80%, the pest or weed control at 25 ppm (Phakopsora pachyrhizi; [4]) was over 80% and the pest or weed control at 100 ppm [2] was under 80%.
Molecule `COc1ccnc(C(=O)N[C@@H](C)C(=O)O[C@@H](C)[C@H](c2ccc(F)cc2C)C(C)C)c1OC(=O)CC(C)C` [Compound 356] has a pest or weed control at 100 ppm (Uncinula necator) of over 80%, a pest or weed control at 100 ppm (Parastagonospora nodorum) of over 80% and a pest or weed control at 100 ppm [1] of under 80%. For the same molecule, the pest or weed control at 25 ppm (Phakopsora pachyrhizi; [3]) was over 80%, the pest or weed control at 25 ppm (Phakopsora pachyrhizi; [4]) was over 80% and the pest or weed control at 100 ppm [2] was under 80%.
